For series [1] the following is noted: 72 h.
Series [2] is classed as binding. The method, then:
A composition of the invention can comprise SAE-CD, corticosteroid, aqueous liquid carrier, and an antihistamine. In some embodiments, the composition contains SAE-CD, budesonide, water (or aqueous buffer) and azelastine. Example 14 details the preparation of such a composition. Other solutions of azelastine in buffer with varying amounts of SAE-CD, in the absence of budesonide, were prepared and scanned by UV Spectrometer. The change in absorption as a function of SAE-CD concentration was plotted and used to determine the equilibrium binding constant of azelastine with SAE-CD, according to the Benesi-Hildebrand equation. […] The binding constant for budesonide under similar conditions was determined to be about 1000; therefore, azelastine will compete with budesonide, or another corticosteroid, for binding to SAE-CD. Accordingly, the amount of SAE-CD present can be increased to permit complete dissolution of both drugs.
(§1) The equilibrium binding constant of the corticosteroid can change when a second active agent is present in a composition of the invention. Since azelastine hydrochloride (AZ-HCl) has an approximately 10-fold higher binding constant for SBE-β-CD than does budesonide (BUD), the amount of SBE-β-CD present in an aqueous composition of the three needs to be sufficient to solubilize both drugs. Example 19 details a procedure for determination of the phase solubility of budesonide in the presence of varying amounts of azelastine. The results are depicted in FIGS. 11A (for SBE-β-CD) and 11B (for SBE-β-CD and SBE-γ-CD). […] FIG. 11B is a chart of the phase solubility of BUD as a function of SBE-β-CD or SBE-γ-CD concentration in solution using various different concentrations of AZ-HCl (1.00-2.75 mg.mL). […] Thus, increasing the amount of AZ-HCl in the solution decreases the overall solubility of BUD. […] Therefore, it is advantageous to prepare solution compositions of these combinations using SBE-γ-CD due to the efficiency of interaction so as to require less of one SAExCD versus another different SAEyCD to solubilize similar amounts of actives in the presence of each other.

The format of series [3] is binding.
Text: as §1
This is another data set of the same source.

A short description of series [4]: pH and temperature stability of azelastine with and without CAPTISOL (Example 16). In kind it is physicochemical. The following applies: sixteen weeks, 25, 40, 60° C., pH 4, 5, 6. An excerpt: SAE-CD is also capable of stabilizing a second active agent included in the composition. Example 16 details a procedure for evaluating the stability of azelastine in the presence of SAE-CD at varying temperatures and in solutions of different pH's. The results are depicted in FIGS. 10A to 10C. The SAE-CD stabilized the azelastine for the period of sixteen weeks regardless of the temperature or pH of the solution. The lower the temperature, the greater the stabilization.
The pH and temperature stability of an aqueous liquid composition comprising SAE-CD, azelastine, and buffer were determined as follows.
Stock citrate solutions (sodium citrate (3 mM) and citric acid solution (3 mM); 500 mL each) were prepared. The citrate solutions were combined and titrated to prepare stock buffered solutions (at least 150 mL each) having a pH of 4, 5, or 6. A stock solution of azelastine hydrochloride (5 mg/mL) in water was prepared. Assay solutions comprising CAPTISOL, azelastine and buffer were prepared by mixing CAPTISOL (1.4 g) and stock solution of azelastine (7.5 mL) in stock buffered solution (QS to final volume of 75 mL for each different pH). Assay solutions comprising azelastine and buffer were prepared by mixing stock solution of azelastine (7.5 mL) and stock buffered solution (67.5 mL, or QS to final volume of 75 mL). […]

On to `C[C@@H]1C[C@H]2[C@@H]3CCC4=CC(=O)C=C[C@]4(C)[C@@]3(Cl)[C@@H](O)C[C@]2(C)[C@@]1(O)C(=O)CCl` [Mometasone, mometasone], for which, in series [1], the “Steroid solubility (intrinsic)” value worked out at 0 µM.

On to `CN1CCCC(n2nc(Cc3ccc(Cl)cc3)c3ccccc3c2=O)CC1` (stereo not drawn) [azelastine, 4-[(4-chlorophenyl)methyl]-2-(1-methylazepan-4-yl)-phthalazin-1-one], for which, in series [2], the “Equilibrium complex stability constant with SBE-β-CD” value was ~10000 M⁻¹ and the “Equilibrium complex stability constant with SBE-β-CD relative to SBE-γ-CD” value was “about 5 times”. Moreover, the “Equilibrium binding constant with CAPTISOL” value in series [2] (pH 4.5) was “approximately 10,000”. Also, the “Equilibrium complex stability constant with SBE-γ-CD” value in series [3] was 2200 M⁻¹. Moreover, in series [4], the “Stability in the presence of SAE-CD” value is “stabilized”.

The values are drawn from patent US12370352B2, “Nasal and ophthalmic delivery of aqueous corticosteroid solutions” (CyDex Pharmaceuticals, Inc., priority 2007, dated 2025).
